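Briefly, cells in 96-well plates were exposed to five compound concentrations for 48 h, and endpoints were estimated by linear interpolation. TGI: concentration producing complete growth inhibition.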
Key:
Assay in all cases: DTP human tumour cell line panel, 48 h
[1] = test system: CAKI-1 renal
[2] = test system: OVCAR-4 ovarian
[3] = test system: M19-MEL melanoma
[4] = test system: ACHN renal
[5] = test system: UO-31 renal
[6] = test system: OVCAR-8 ovarian
[7] = test system: UACC-257 melanoma
[8] = test system: SK-MEL-28 melanoma
[9] = test system: LOX IMVI melanoma
[10] = test system: TK-10 renal
[11] = test system: HCT-116 colon
[12] = test system: EKVX NSCLC
[13] = test system: SR leukemia
[14] = test system: MOLT-4 leukemia
[15] = test system: SNB-78 CNS
[16] = test system: HOP-18 NSCLC
[17] = test system: HOP-92 NSCLC
[18] = test system: K-562 leukemia
[19] = test system: LXFL 529 NSCLC
[20] = test system: OVCAR-5 ovarian
[21] = test system: A549 NSCLC
[22] = test system: U251 CNS
[23] = test system: M14 melanoma
[24] = test system: SNB-75 CNS
[25] = test system: IGROV1 ovarian
[26] = test system: RXF-631 renal
[27] = test system: OVCAR-3 ovarian
[28] = test system: MALME-3M melanoma
[29] = test system: SF-268 CNS
[30] = test system: KM12 colon
[31] = test system: SK-MEL-5 melanoma
[32] = test system: KM20L2 colon
[33] = test system: SF-539 CNS
[34] = test system: NCI-H226 lung
[35] = test system: DLD-1 colon
[36] = test system: HCC-2998 colon
[37] = test system: SNB-19 CNS
[38] = test system: NCI-H460 lung
[39] = test system: SF-295 CNS
[40] = test system: HL-60(TB) leukemia
[41] = test system: HOP-62 NSCLC
[42] = test system: RXF 393 renal
[43] = test system: SK-OV-3 ovarian
[44] = test system: RPMI-8226 leukemia
[45] = test system: NCI-H23 lung
[46] = test system: NCI-H522 lung
[47] = test system: COLO 205 colon
[48] = test system: UACC-62 melanoma
[49] = test system: A498 renal
[50] = test system: SW-620 colon
[51] = test system: SN12C renal
[52] = test system: CCRF-CEM leukemia
[53] = test system: HT29 colon
[54] = test system: 786-0 renal
[55] = test system: HCT-15 colon
[56] = test system: DMS 114 small cell lung
[57] = test system: XF 498 CNS
[58] = test system: SK-MEL-2 melanoma
[59] = test system: DMS 273 small cell lung
[60] = test system: MDA-MB-231 breast
[61] = test system: BT-549 breast
[62] = test system: PC-3 prostate
[63] = test system: DU-145 prostate
[64] = test system: HS 578T breast
[65] = test system: MDA-MB-435
[66] = test system: T-47D breast
[67] = test system: MDA-N
[68] = test system: MCF7 breast
[69] = test system: NCI/ADR-RES ovarian

Compound `CCOC(=O)C1=NC(c2ccccc2)(c2ccccc2)OC1=C(Cl)Cl` has a TGI [1] of over 100 µM, a TGI [2] of over 100 µM and a TGI [3] of over 100 µM. For the same compound, the TGI [4] was over 100 µM, the TGI [5] was over 100 µM and the TGI [6] was over 100 µM. For the same compound, the TGI [7] was over 100 µM, the TGI [8] was over 100 µM and the TGI [9] was over 100 µM. For the same compound, the TGI [10] was over 100 µM, the TGI [11] was over 100 µM and the TGI [12] was over 100 µM. It also gave a TGI [13] of over 100 µM, a TGI [14] of over 100 µM and a TGI [15] of over 100 µM. The TGI [16] was over 100 µM, the TGI [17] was over 100 µM and the TGI [18] was over 100 µM. The TGI [19] was over 100 µM, the TGI [20] was over 100 µM and the TGI [21] was over 100 µM. It also gave a TGI [22] of over 100 µM, a TGI [23] of over 100 µM and a TGI [24] of over 100 µM. The TGI [25] was over 100 µM, the TGI [26] was over 100 µM and the TGI [27] was over 100 µM. The TGI [28] was over 100 µM, the TGI [29] was over 100 µM and the TGI [30] was over 100 µM. The TGI [31] was over 100 µM, the TGI [32] was over 100 µM and the TGI [33] was over 100 µM. For the same compound, the TGI [34] was over 100 µM, the TGI [35] was over 100 µM and the TGI [36] was 57.4 µM. It also gave a TGI [37] of over 100 µM, a TGI [38] of over 100 µM and a TGI [39] of over 100 µM. The TGI [40] was 34.8 µM, the TGI [41] was over 100 µM and the TGI [42] was 12.5 µM. The TGI [43] was over 100 µM, the TGI [44] was over 100 µM and the TGI [45] was over 100 µM. For the same compound, the TGI [46] was over 100 µM, the TGI [47] was over 100 µM and the TGI [48] was over 100 µM. It also gave a TGI [49] of over 100 µM, a TGI [50] of over 100 µM and a TGI [51] of over 100 µM. The TGI [52] was over 100 µM, the TGI [53] was over 100 µM and the TGI [54] was over 100 µM. The TGI [55] was over 100 µM.

For `O=c1c2ccccc2nc(-c2ccccc2Cl)n1NCC1(O)OCC(O)C(O)C1O` (stereo not drawn), the TGI [56] was over 100 µM, the TGI [1] was over 100 µM and the TGI [2] was over 100 µM. It also gave a TGI [3] of over 100 µM, a TGI [4] of over 100 µM and a TGI [5] of over 100 µM. The TGI [6] was over 100 µM, the TGI [7] was over 100 µM and the TGI [8] was over 100 µM. The TGI [9] was over 100 µM, the TGI [10] was over 100 µM and the TGI [11] was over 100 µM. The TGI [12] was over 100 µM, the TGI [13] was over 100 µM and the TGI [14] was over 100 µM. For the same compound, the TGI [57] was over 100 µM, the TGI [15] was over 100 µM and the TGI [18] was over 100 µM. It also gave a TGI [19] of over 100 µM, a TGI [58] of over 100 µM and a TGI [20] of over 100 µM. For the same compound, the TGI [21] was over 100 µM, the TGI [22] was over 100 µM and the TGI [23] was over 100 µM. The TGI [24] was over 100 µM, the TGI [26] was over 100 µM and the TGI [27] was over 100 µM. It also gave a TGI [28] of over 100 µM, a TGI [29] of over 100 µM and a TGI [30] of over 100 µM. The TGI [31] was over 100 µM, the TGI [32] was over 100 µM and the TGI [33] was over 100 µM. It also gave a TGI [37] of over 100 µM, a TGI [38] of over 100 µM and a TGI [39] of over 100 µM. For the same compound, the TGI [40] was over 100 µM, the TGI [42] was over 100 µM and the TGI [43] was over 100 µM. The TGI [44] was over 100 µM, the TGI [45] was over 100 µM and the TGI [46] was over 100 µM. It also gave a TGI [47] of over 100 µM, a TGI [48] of over 100 µM and a TGI [49] of over 100 µM. It also gave a TGI [50] of over 100 µM, a TGI [51] of over 100 µM and a TGI [52] of over 100 µM. The TGI [59] was over 100 µM, the TGI [53] was over 100 µM and the TGI [54] was over 100 µM. The TGI [55] was over 100 µM.

`CNS(=O)(=O)NN(C)S(=O)(=O)c1ccc(OC)cc1` was tested, and the TGI [56] was over 100 µM, the TGI [1] was over 100 µM and the TGI [2] was over 100 µM. For the same compound, the TGI [3] was over 100 µM, the TGI [4] was over 100 µM and the TGI [5] was over 100 µM. It also gave a TGI [6] of over 100 µM, a TGI [7] of over 100 µM and a TGI [9] of over 100 µM. The TGI [10] was over 100 µM, the TGI [11] was over 100 µM and the TGI [12] was over 100 µM. The TGI [13] was over 100 µM, the TGI [14] was over 100 µM and the TGI [57] was over 100 µM. It also gave a TGI [18] of over 100 µM, a TGI [19] of over 100 µM and a TGI [58] of over 100 µM. It also gave a TGI [21] of over 100 µM, a TGI [22] of over 100 µM and a TGI [23] of over 100 µM. For the same compound, the TGI [24] was over 100 µM, the TGI [25] was over 100 µM and the TGI [26] was over 100 µM. It also gave a TGI [28] of over 100 µM, a TGI [29] of over 100 µM and a TGI [30] of over 100 µM. The TGI [31] was over 100 µM, the TGI [32] was over 100 µM and the TGI [33] was over 100 µM. The TGI [34] was over 100 µM, the TGI [35] was over 100 µM and the TGI [36] was over 100 µM. It also gave a TGI [37] of over 100 µM, a TGI [39] of over 100 µM and a TGI [40] of over 100 µM. For the same compound, the TGI [41] was over 100 µM, the TGI [42] was over 100 µM and the TGI [44] was over 100 µM. The TGI [45] was over 100 µM, the TGI [46] was over 100 µM and the TGI [47] was over 100 µM. It also gave a TGI [48] of over 100 µM, a TGI [49] of over 100 µM and a TGI [50] of over 100 µM. It also gave a TGI [51] of over 100 µM, a TGI [52] of over 100 µM and a TGI [59] of over 100 µM. For the same compound, the TGI [53] was over 100 µM, the TGI [54] was over 100 µM and the TGI [55] was over 100 µM.

For `CC1c2ccccc2Cn2cc3c(c21)C(=O)c1cccc(OP(=O)(O)OCc2ccccc2)c1C3=O` (stereo not drawn), the TGI [56] was over 100 µM, the TGI [1] was over 100 µM and the TGI [60] was over 100 µM. For the same compound, the TGI [2] was over 100 µM, the TGI [4] was over 100 µM and the TGI [5] was over 100 µM. For the same compound, the TGI [6] was over 100 µM, the TGI [7] was over 100 µM and the TGI [8] was over 100 µM. The TGI [61] was over 100 µM, the TGI [9] was over 100 µM and the TGI [10] was over 100 µM. It also gave a TGI [11] of over 100 µM, a TGI [12] of over 100 µM and a TGI [13] of over 100 µM. It also gave a TGI [14] of over 100 µM, a TGI [57] of over 100 µM and a TGI [62] of over 100 µM. The TGI [17] was over 100 µM, the TGI [63] was over 100 µM and the TGI [18] was over 100 µM. The TGI [19] was over 100 µM, the TGI [58] was over 100 µM and the TGI [20] was over 100 µM. For the same compound, the TGI [21] was over 100 µM, the TGI [22] was over 100 µM and the TGI [23] was over 100 µM. The TGI [24] was over 100 µM, the TGI [25] was over 100 µM and the TGI [64] was over 100 µM. For the same compound, the TGI [26] was over 100 µM, the TGI [27] was over 100 µM and the TGI [28] was over 100 µM. For the same compound, the TGI [65] was over 100 µM, the TGI [29] was over 100 µM and the TGI [66] was over 100 µM. For the same compound, the TGI [30] was over 100 µM, the TGI [31] was over 100 µM and the TGI [67] was over 100 µM. For the same compound, the TGI [32] was over 100 µM, the TGI [33] was over 100 µM and the TGI [34] was over 100 µM. For the same compound, the TGI [35] was over 100 µM, the TGI [36] was over 100 µM and the TGI [37] was over 100 µM. For the same compound, the TGI [38] was over 100 µM, the TGI [39] was over 100 µM and the TGI [40] was over 77.3 µM. The TGI [41] was over 100 µM, the TGI [68] was over 100 µM and the TGI [42] was over 100 µM. For the same compound, the TGI [43] was over 100 µM, the TGI [69] was over 100 µM and the TGI [44] was over 100 µM. It also gave a TGI [45] of over 100 µM, a TGI [46] of over 100 µM and a TGI [47] of over 100 µM. The TGI [48] was over 100 µM, the TGI [49] was over 100 µM and the TGI [50] was over 100 µM. It also gave a TGI [51] of over 100 µM, a TGI [52] of over 100 µM and a TGI [53] of over 100 µM. For the same compound, the TGI [54] was over 100 µM and the TGI [55] was over 100 µM.
